This note sets out measurements from ChEMBL document CHEMBL1129110, “O-alkylcarboxylate oxime and N-hydroxyurea analogs of substituted indole leukotriene biosynthesis inhibitors” (Bioorg Med Chem Lett, 1996).

In test [1] the target is T1, 5-lipoxygenase/FLAP (Homo sapiens, UniProt P09917+P20292).
T1 sequence (P09917 whole entry): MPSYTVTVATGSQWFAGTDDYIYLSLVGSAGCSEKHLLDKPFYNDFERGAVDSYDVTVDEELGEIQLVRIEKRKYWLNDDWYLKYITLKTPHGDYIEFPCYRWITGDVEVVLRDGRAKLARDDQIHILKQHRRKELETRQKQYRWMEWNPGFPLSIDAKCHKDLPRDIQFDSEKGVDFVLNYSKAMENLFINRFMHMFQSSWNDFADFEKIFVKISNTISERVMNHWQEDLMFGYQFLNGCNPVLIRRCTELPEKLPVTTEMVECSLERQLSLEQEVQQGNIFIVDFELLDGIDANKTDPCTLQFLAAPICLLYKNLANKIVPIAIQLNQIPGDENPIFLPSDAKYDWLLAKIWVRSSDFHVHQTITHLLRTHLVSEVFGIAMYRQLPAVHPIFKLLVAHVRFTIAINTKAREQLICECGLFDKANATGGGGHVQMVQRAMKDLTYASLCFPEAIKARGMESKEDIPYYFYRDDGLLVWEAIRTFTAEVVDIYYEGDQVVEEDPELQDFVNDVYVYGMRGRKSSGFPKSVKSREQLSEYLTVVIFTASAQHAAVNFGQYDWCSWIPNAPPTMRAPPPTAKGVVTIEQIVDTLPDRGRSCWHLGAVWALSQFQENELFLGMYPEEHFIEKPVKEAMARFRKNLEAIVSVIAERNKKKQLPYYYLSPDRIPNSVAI
T1 sequence (P20292 whole entry): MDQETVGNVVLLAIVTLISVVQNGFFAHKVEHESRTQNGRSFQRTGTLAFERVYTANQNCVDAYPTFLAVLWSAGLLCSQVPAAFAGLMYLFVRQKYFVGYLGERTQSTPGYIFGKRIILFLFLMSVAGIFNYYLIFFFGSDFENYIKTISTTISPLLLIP
The test is described as follows: Inhibition of calcium ionophore (A23187) stimulated LTB4 formation in human neutrophils. In kind it is functional.

Test [2] concerns Rattus norvegicus. Kind of test: Compound was tested in vivo against rat anaphylaxis in the peritoneal cavity. In kind it is functional.
Test [3] deals with T1, 5-lipoxygenase/FLAP. The test is described as follows: (§1) Human whole blood was stimulated with calcium ionophore (A23187) and LTB 4 measured by enzyme immunoassay. Format: functional, tissue-based.
In test [4] the test system is Rattus norvegicus. Kind of test: Compound was tested in vivo against rat anaphylaxis in the peritoneal cavity at concentration of 1 umol/kg. Format: functional.
The target of test [5] is T2, Polyunsaturated fatty acid 5-lipoxygenase (Rattus norvegicus, UniProt P12527).
T2 sequence (P12527 whole entry): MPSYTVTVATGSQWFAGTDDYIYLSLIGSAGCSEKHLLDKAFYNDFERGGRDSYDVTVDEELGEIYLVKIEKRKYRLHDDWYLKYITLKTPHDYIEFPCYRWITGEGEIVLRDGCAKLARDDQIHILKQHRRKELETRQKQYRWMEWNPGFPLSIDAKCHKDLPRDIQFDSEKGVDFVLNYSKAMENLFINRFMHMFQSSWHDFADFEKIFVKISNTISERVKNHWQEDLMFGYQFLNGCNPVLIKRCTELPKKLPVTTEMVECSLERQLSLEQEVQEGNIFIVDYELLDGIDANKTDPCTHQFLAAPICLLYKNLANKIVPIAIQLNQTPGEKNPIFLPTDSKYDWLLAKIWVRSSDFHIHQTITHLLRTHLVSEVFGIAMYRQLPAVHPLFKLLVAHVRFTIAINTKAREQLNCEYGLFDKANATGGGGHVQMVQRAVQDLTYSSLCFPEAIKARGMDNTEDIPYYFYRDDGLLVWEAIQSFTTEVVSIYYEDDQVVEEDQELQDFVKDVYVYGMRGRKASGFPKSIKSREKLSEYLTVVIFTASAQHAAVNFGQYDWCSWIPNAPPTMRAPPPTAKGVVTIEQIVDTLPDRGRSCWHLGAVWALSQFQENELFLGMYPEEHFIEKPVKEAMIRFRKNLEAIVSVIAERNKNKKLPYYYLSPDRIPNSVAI
The test is described as follows: Compound was tested for inhibition of 5-lipoxygenase activity in a broken cell supernatant rat basophilic leukemia cells at concentration of 32 uM; Not active.

Test [6] concerns Rattus norvegicus. The test is described as follows: Compound was tested in vivo against rat anaphylaxis in the peritoneal cavity at concentration of 100 umol/kg; Not active. Format: functional, organism-based.
Test [7] addresses T2, Polyunsaturated fatty acid 5-lipoxygenase. The test is described as follows: Compound was tested for inhibition of 5-lipoxygenase activity in a broken cell supernatant rat basophilic leukemia cells.
Test [8] shares this target. Kind of test: Compound was tested for inhibition of 5-lipoxygenase activity in a broken cell supernatant rat basophilic leukemia cells at concentration of 50 uM; Not active.
Test [9] relates to Rattus norvegicus. Kind of test: Compound was tested in vivo against rat anaphylaxis in the peritoneal cavity at 60 umol/kg. Format: functional.
The species entered for test [10] is Homo sapiens. The description is as §1. In kind it is functional.
The species entered for test [11] is Homo sapiens. The test is described as follows: Compound was tested for inhibition of calcium ionophore (A23187) stimulated LTB4 formation in human neutrophils at 100 nM. Format: functional.
The test system of test [12] is Rattus norvegicus. Kind of test: Compound was tested in vivo against rat anaphylaxis in the peritoneal cavity at concentration of 100 umol/kg. Format: functional.
Test [13] concerns Rattus norvegicus. Kind of test: Compound was tested in vivo against rat anaphylaxis in the peritoneal cavity; Not active. Format: functional, organism-based.

Calls of active or inactive are those of the source. The rule behind the calls is not given here.

In general, IC50 refers to the point on the concentration scale where inhibition reaches its midpoint. The ED50 is the dose that gives a 50% effect, or the effect in half of the subjects. Turning to `CC(C)(/C=N/OCC(=O)O)Cc1c(SC(C)(C)C)c2cc(OCc3cccc(Cl)n3)ccc2n1Cc1ccc(Cl)cc1`, the half-inhibitory concentration (IC50) was found to be 10 nM at 5-lipoxygenase/FLAP [1] and 230 nM on 5-lipoxygenase/FLAP [3]. The 50% effect level in the test with Rattus norvegicus [2] (ED50) was put at a dose of 2.6 µmol/kg.
For the compound `CC(C)(/C=N/OCC(=O)O)Cc1c(SC(C)(C)C)c2cc(OCc3ccccn3)ccc2n1Cc1ccc(Cl)cc1`, the results for the concentration for half-maximal inhibition (IC50) on 5-lipoxygenase/FLAP [1] and on 5-lipoxygenase/FLAP [3] were 13 nM and 600 nM, respectively. The ED50 with Rattus norvegicus [2] is 0.12 µmol/kg.
One may read the inhibition in vivo as the change of the read-out against control, counted positive when it falls. Read a high inhibition in vivo as a strong effect. `CC(C)(C)Sc1c(CC(C)(C)C(=O)O)n(Cc2ccc(Cl)cc2)c2ccc(OCc3nc4ccccc4s3)cc12`: the values for the IC50 at 5-lipoxygenase/FLAP [1] and at 5-lipoxygenase/FLAP [3] were 10 nM and 360 nM, respectively. The compound further gave an inhibition in vivo at 1 µmol/kg in the test on Rattus norvegicus [4] of 71%.
`CC(C)c1ccc2c(c1)c(SC(C)(C)C)c(CC(C)(C)/C=N/OCC(=O)O)n2Cc1ccc(Cl)cc1`: the IC50 on 5-lipoxygenase/FLAP [1] came to 0.1 nM; at 5-lipoxygenase/FLAP [3] it was 680 nM. Also, in the test on Rattus norvegicus [2], the 50% effect level (ED50) was put at a dose of 3 µmol/kg.
Consider `CC(C)(/C=N/OCC(=O)O)Cc1c(SC(C)(C)C)c2cc(OCc3ccc4ccccc4n3)ccc2n1Cc1ccc(Cl)cc1`, for which the IC50 on 5-lipoxygenase/FLAP [1] came to 12 nM; at 5-lipoxygenase/FLAP [3], 600 nM. The ED50 in the test on Rattus norvegicus [2] was determined as 0.24 µmol/kg.
As to `CC(C)(/C=N/OCC(=O)O)Cc1c(SC(C)(C)C)c2cc(OCc3cscn3)ccc2n1Cc1ccc(Cl)cc1`, the IC50 at 5-lipoxygenase/FLAP [1] came out at 11 nM; on 5-lipoxygenase/FLAP [3], 180 nM. Further, it took a dose of 44 µmol/kg to reach the 50% effect level in the test on Rattus norvegicus [2] (ED50).
Turning to `CC(C)c1ccc2c(c1)c(SC(C)(C)C)c(CC(C)(C)C(=O)O)n2Cc1ccc(Cl)cc1`, the IC50 result in test [5] is “Not Active”; at 5-lipoxygenase/FLAP [1], 0.03 nM; at 5-lipoxygenase/FLAP [3] it was 340 nM. This compound also yielded an ED50 in the test on Rattus norvegicus [2] of 16 µmol/kg.
In the test with Rattus norvegicus [2], `CC(C)(C)Sc1c(CC(C)(C)C(=O)O)n(Cc2ccc(Cl)cc2)c2ccc(OCc3ccccn3)cc12` registered an ED50 of 0.16 µmol/kg. In addition, the IC50 at 5-lipoxygenase/FLAP [3] is 50 nM.
For `CC(C)(C)Sc1c(CC(C)(C)C(=O)O)n(Cc2ccc(Cl)cc2)c2ccc(OCc3ccc4ccccc4c3)cc12`, the figures for the IC50 at 5-lipoxygenase/FLAP [1] and on 5-lipoxygenase/FLAP [3] were 12 nM and 4420 nM, respectively. In addition, the ED50 entry with Rattus norvegicus [6] was “inactive”.
On to `CC(C)c1ccc2c(c1)c(SC(C)(C)C)c(CC(C)(C)CN(O)C(N)=O)n2Cc1ccc(Cl)cc1`, for which the IC50 in [7] was 7500 nM; at 5-lipoxygenase/FLAP [1] it was 0.17 nM; on 5-lipoxygenase/FLAP [3], 1600 nM. Also, it took a dose of 46 µmol/kg to reach the 50% effect level with Rattus norvegicus [2] (ED50).
In the case of `CC(C)c1ccc2c(c1)c(SC(C)(C)C)c(CC(C)(C)CNC(N)=O)n2Cc1ccc(Cl)cc1`, the results for the IC50 result (in test [8]; on 5-lipoxygenase/FLAP [1]; at 5-lipoxygenase/FLAP [3]) were “Not Active”, 0.18 nM and 970 nM, respectively. Also, the ED50 in the test with Rattus norvegicus [2] was 11 µmol/kg.
`CC(C)c1ccc2c(c1)c(SC(C)(C)C)c(CC(C)(C)NC(=O)N(C)O)n2Cc1ccc(Cl)cc1`: the IC50 turned out to be 7500 nM in test [7], 0.15 nM at 5-lipoxygenase/FLAP [1] and 1300 nM on 5-lipoxygenase/FLAP [3]. The compound also yielded an inhibition in vivo at 60 µmol/kg in the test with Rattus norvegicus [9] of 49%.
The Inhibition is the relative decrease from the control value, in per cent. Turning to `CC(C)(C)Sc1c(CC(C)(C)C(=O)O)n(Cc2ccc(Cl)cc2)c2ccc(OCc3nccs3)cc12`, in the test listed under Homo sapiens [10], the Inhibition was determined as 41%. Also, on 5-lipoxygenase/FLAP [1], the IC50 was 7 nM. This compound displayed an inhibition in vivo at 1 µmol/kg with Rattus norvegicus [4] of 16%.
By inhibition is commonly meant the percentage by which the read-out fell short of the control. Take `CC(C)(C)Sc1c(CC(C)(C)C(=O)O)n(Cc2ccc(Cl)cc2)c2ccc(OCc3ccncc3)cc12`: in the test listed under Homo sapiens [11], the inhibition at 0.1 µM came out at 100%. The ED50 result in the test with Rattus norvegicus [6] is “inactive”. Further, at 5-lipoxygenase/FLAP [3], the IC50 was 840 nM.
As to `CC(C)(C)Sc1c(CC(C)(C)C(=O)O)n(Cc2ccc(Cl)cc2)c2ccc(OCc3cccc(Cl)n3)cc12`, the figures for the IC50 at 5-lipoxygenase/FLAP [1] and at 5-lipoxygenase/FLAP [3] were 17 nM and 110 nM, respectively. The ED50 with Rattus norvegicus [2] turned out to be 1.2 µmol/kg.
Turning to `CC(C)(C)Sc1c(CC(C)(C)C(=O)O)n(Cc2ccc(Cl)cc2)c2ccc(OCc3ccc4ccccc4n3)cc12` [QUIFLAPON], the IC50 on 5-lipoxygenase/FLAP [1] is 8 nM; on 5-lipoxygenase/FLAP [3], 200 nM. Moreover, the ED50 in the test on Rattus norvegicus [2] worked out at 1.6 µmol/kg.
As for `CC(C)(C)Sc1c(CC(C)(C)C(=O)O)n(Cc2ccc(Cl)cc2)c2ccc(OCc3cccnc3)cc12`, the results for the IC50 on 5-lipoxygenase/FLAP [1] and on 5-lipoxygenase/FLAP [3] were 17 nM and 1090 nM, respectively. In addition, in the test with Rattus norvegicus [12], the inhibition in vivo at 100 µmol/kg stood at 4%.
Consider `CC(C)(C)Sc1c(CC(C)(C)C(=O)O)n(Cc2ccc(Cl)cc2)c2ccc(OCc3cscn3)cc12`, for which the IC50 at 5-lipoxygenase/FLAP [1] was 4 nM; on 5-lipoxygenase/FLAP [3] it was 40 nM. The compound further had an ED50 in the test with Rattus norvegicus [2] of 1.8 µmol/kg.
For the compound `CC(C)c1ccc2c(c1)c(SC(C)(C)C)c(CC(C)(C)/C=N/O)n2Cc1ccc(Cl)cc1`, the IC50 on 5-lipoxygenase/FLAP [1] was 0.27 nM; on 5-lipoxygenase/FLAP [3], 2200 nM. The compound also registered an inhibition in vivo at 100 µmol/kg with Rattus norvegicus [12] of 46%.
On to `CO/N=C/C(C)(C)Cc1c(SC(C)(C)C)c2cc(C(C)C)ccc2n1Cc1ccc(Cl)cc1`, for which the figures for the 50% inhibitory concentration (IC50) at 5-lipoxygenase/FLAP [1] and at 5-lipoxygenase/FLAP [3] were 0.34 nM and 11000 nM, respectively. In addition, the ED50 result with Rattus norvegicus [13] was “inactive”.
